Reference: ChEMBL document CHEMBL4616660, “Phenylpropanoid-Conjugated Triterpenoids from the Leaves of Actinidia arguta and Their Inhibitory Activity on α-Glucosidase” (J Nat Prod, 2020)

Tested on: Saccharomyces cerevisiae
Assay: Inhibition of Saccharomyces cerevisiae alpha-glucosidase at 100 uM using p-nitrophenyl alpha-Dglucopyranoside as substrate preincubated for 15 mins followed by substrate addition and measured after 20 mins relative to control

**Q.** Which inhibition does the source give for `C=C1CC[C@]2(C(=O)O)CC[C@]3(C)C(=CC[C@@H]4[C@@]5(C)C[C@@H](O)[C@H](OC(=O)/C=C/c6ccc(O)cc6)[C@@](C)(CO)[C@@H]5CC[C@]43C)[C@@H]2[C@H]1C` here?
**A.** 65.8%

**Q.** `C=C1CC[C@]2(C(=O)O)CC[C@]3(C)C(=CC[C@@H]4[C@@]5(C)C[C@@H](O)[C@H](O)[C@@](C)(CO)[C@@H]5CC[C@]43C)[C@@H]2[C@H]1C` was tested. Which inhibition did it give?
**A.** 13%

**Q.** How did the inhibition turn out when `C[C@H]1[C@H](C)CC[C@]2(C(=O)O)CC[C@]3(C)C(=CC[C@@H]4[C@@]5(C)C[C@@H](OC(=O)/C=C/c6ccc(O)cc6)[C@H](O)[C@@](C)(CO)[C@@H]5CC[C@]43C)[C@H]12` was run?
**A.** 67.2%

**Q.** `C=C1CC[C@]2(C(=O)O)CC[C@]3(C)C(=CC[C@@H]4[C@@]5(C)C[C@@H](O)[C@H](O)[C@@](C)(COC(=O)/C=C/c6ccc(O)cc6)[C@@H]5CC[C@]43C)[C@@H]2[C@H]1C` was tested. Which inhibition did it give?
**A.** 59.9%

**Q.** How did the inhibition turn out when `C=C1CC[C@]2(C(=O)O)CC[C@]3(C)C(=CC[C@@H]4[C@@]5(C)C[C@@H](O)[C@@H](O)[C@@](C)(CO)[C@@H]5CC[C@]43C)[C@@H]2[C@H]1C` was run?
**A.** 1.7%

**Q.** Which inhibition does the source give for `C=C1C=C[C@]2(C(=O)O)CC[C@]3(C)C(=CC[C@@H]4[C@@]5(C)C[C@@H](O)[C@@H](O)[C@@](C)(CO)[C@@H]5CC[C@]43C)[C@@H]2[C@H]1C` here?
**A.** 3%

**Q.** How did the inhibition turn out when `C[C@H]1[C@H](C)CC[C@]2(C(=O)O)CC[C@]3(C)C(=CC[C@@H]4[C@@]5(C)C[C@@H](O)[C@H](OC(=O)/C=C/c6ccc(O)cc6)[C@@](C)(CO)[C@@H]5CC[C@]43C)[C@H]12` was run?
**A.** 81.3%

**Q.** How did the inhibition turn out when `C[C@H]1[C@H](C)CC[C@]2(C(=O)O)CC[C@]3(C)C(=CC[C@@H]4[C@@]5(C)C[C@@H](O)[C@H](O)[C@@](C)(COC(=O)/C=C/c6ccc(O)cc6)[C@@H]5CC[C@]43C)[C@H]12` was run?
**A.** 67%

**Q.** How did the inhibition turn out when `C=C1CC[C@]2(C(=O)O)CC[C@]3(C)C(=CC[C@@H]4[C@@]5(C)C[C@@H](O)[C@H](O)[C@@](C)(COC(=O)/C=C\c6ccc(O)cc6)[C@@H]5CC[C@]43C)[C@@H]2[C@H]1C` was run?
**A.** 38.8%

**Q.** Which inhibition does the source give for `C[C@H]1O[C@H](O[C@H]2[C@H](O)[C@@H](O)[C@@H](O[C@H]3[C@H](O)[C@@H](O)C(O)O[C@@H]3CO)O[C@@H]2CO)[C@H](O)[C@@H](O)[C@@H]1N[C@H]1C=C(CO)[C@@H](O)[C@H](O)[C@H]1O` (stereo partly specified) here?
**A.** 72.8%

**Q.** With `C[C@H]1[C@H](C)CC[C@]2(C(=O)O)CC[C@]3(C)C(=CC[C@@H]4[C@@]5(C)C[C@@H](O)[C@H](OC(=O)/C=C/c6ccc(O)c(O)c6)[C@@](C)(CO)[C@@H]5CC[C@]43C)[C@H]12` as the compound, how does the inhibition read?
**A.** 72.8%

**Q.** How did the inhibition turn out when `C=C1CC[C@]2(C(=O)O)CC[C@]3(C)C(=CC[C@@H]4[C@@]5(C)C[C@@H](OC(=O)/C=C/c6ccc(O)cc6)[C@H](O)[C@@](C)(CO)[C@@H]5CC[C@]43C)[C@@H]2[C@H]1C` was run?
**A.** 70.1%

**Q.** How did the inhibition turn out when `CO[C@@H]1C(O)=C2[C@@H]3[C@@H](C)[C@H](C)CC[C@]3(C)CC[C@@]2(C)[C@]2(C)CC[C@H]3C(C)(C)[C@@H](O)CC[C@]3(C)[C@@H]12` was run?
**A.** 23.9%

**Q.** Which inhibition does the source give for `C[C@H]1[C@H](C)CC[C@]2(CO)CC[C@]3(C)C(=CC(=O)[C@@H]4[C@@]5(C)CC[C@H](O)C(C)(C)[C@@H]5CC[C@]43C)[C@H]12` here?
**A.** 34.3%

**Q.** `C[C@H]1[C@H](C)CC[C@]2(C(=O)O)CC[C@]3(C)C(=CC[C@@H]4[C@@]5(C)C[C@@H](O)[C@H](O)[C@@](C)(COC(=O)/C=C\c6ccc(O)cc6)[C@@H]5CC[C@]43C)[C@H]12` was tested. Which inhibition did it give?
**A.** 59%

**Q.** For `C=C1CC[C@]2(C(=O)O)CC[C@]3(C)C(=CC[C@@H]4[C@@]5(C)C[C@@H](O)[C@H](OC(=O)/C=C\c6ccc(O)cc6)[C@@](C)(CO)[C@@H]5CC[C@]43C)[C@@H]2[C@H]1C`, which inhibition is on record?
**A.** 41.4%
